The record followed here is ChEMBL document CHEMBL4834497, “Spirocyclic Thiohydantoin Antagonists of F877L and Wild-Type Androgen Receptor for Castration-Resistant Prostate Cancer” (ACS Med Chem Lett, 2021).

Data set [1] in a line: Metabolic stability in human liver microsomes assessed as half life. It counts as ADME, Microsome.
The nature of data set [2]: AUC (0 to infinity) in CD-1 mouse at 10 mg/kg, po. It is filed as ADME, organism-based. On the set-up: time infinity, route oral, dose 10 mg/kg. The conditions noted are these: in vivo.
Data set [3] is described as follows: Cmax in CD-1 mouse at 10 mg/kg, po. It counts as ADME, organism-based. The following applies: in vivo. On the set-up: route oral, dose 10 mg/kg.
The nature of data set [4]: Clearance in CD-1 mouse at 2 mg/kg, iv. It is filed as ADME, organism-based. The conditions noted are these: in vivo.
Data set [5] is described as follows: Half life in CD-1 mouse at 2 mg/kg, iv. The conditions noted are these: in vivo. It is filed as ADME, organism-based.
Data set [6] in a line: Volume of distribution in steady state in CD-1 mouse at 2 mg/kg, iv. The conditions noted are these: in vivo, read-out: Vdss. It is filed as ADME, organism-based.
Data set [7] is described as follows: Oral bioavailability in CD-1 mouse at 10 mg/kg. It counts as ADME, organism-based. The conditions noted are these: in vivo.
Data set [8] in a line: Metabolic stability in dog liver microsomes assessed as unchanged parent compound remaining at 10 uM incubated for 60 mins in presence of [13C2,15N-glycine]GSH and NADPH by LC-MS/MS analysis. It counts as ADME, Canis lupus familiaris, Microsome. The conditions noted are these: read-out: Stabilty.
A short description of data set [9]: Metabolic stability in dog liver microsomes assessed as unchanged parent compound remaining at 10 uM incubated for 60 mins in presence of [13C2,15N-glycine]GSH by LC-MS/MS analysis. It counts as ADME, Canis lupus familiaris, Microsome. The conditions noted are these: read-out: Stabilty.
Data set [10] addresses Androgen receptor (Homo sapiens, UniProt P10275, F877L). Nature of the data set: Antagonist activity at AR F877L mutant (unknown origin) transfected in human LNCAP cells assessed as inhibition of R1881-stimulated receptor transcriptional activation measured after 20 to 24 hrs by Steady-Glo luciferase assay. It is filed as cell-based.
The target in data set [11] is T1, Androgen receptor (Homo sapiens, UniProt P10275).
T1 sequence (P10275 whole entry): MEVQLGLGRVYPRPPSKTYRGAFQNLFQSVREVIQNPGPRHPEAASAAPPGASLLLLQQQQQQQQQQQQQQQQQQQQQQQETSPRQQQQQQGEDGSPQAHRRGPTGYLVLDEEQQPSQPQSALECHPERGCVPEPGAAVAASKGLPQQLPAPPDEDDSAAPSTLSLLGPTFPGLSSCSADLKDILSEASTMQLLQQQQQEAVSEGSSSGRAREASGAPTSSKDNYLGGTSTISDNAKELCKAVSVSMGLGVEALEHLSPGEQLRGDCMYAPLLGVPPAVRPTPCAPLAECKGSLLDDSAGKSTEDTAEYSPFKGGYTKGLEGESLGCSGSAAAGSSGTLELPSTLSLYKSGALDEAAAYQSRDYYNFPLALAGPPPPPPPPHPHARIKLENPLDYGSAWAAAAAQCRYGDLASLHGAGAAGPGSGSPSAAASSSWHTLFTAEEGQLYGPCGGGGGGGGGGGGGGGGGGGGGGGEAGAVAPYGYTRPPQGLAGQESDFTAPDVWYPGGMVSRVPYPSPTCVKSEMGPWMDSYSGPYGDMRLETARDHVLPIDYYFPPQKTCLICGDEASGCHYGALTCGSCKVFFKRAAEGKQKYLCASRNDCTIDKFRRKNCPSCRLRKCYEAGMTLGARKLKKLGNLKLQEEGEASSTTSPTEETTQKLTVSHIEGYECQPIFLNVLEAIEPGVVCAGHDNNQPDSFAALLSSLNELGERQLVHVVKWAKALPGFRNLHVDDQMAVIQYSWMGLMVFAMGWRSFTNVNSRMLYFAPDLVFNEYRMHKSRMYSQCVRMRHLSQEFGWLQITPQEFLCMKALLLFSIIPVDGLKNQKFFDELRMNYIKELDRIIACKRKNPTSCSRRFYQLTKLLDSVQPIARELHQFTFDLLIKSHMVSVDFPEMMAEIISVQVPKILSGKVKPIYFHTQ
It counts as tissue-based, LNCaP.
Description: Antagonist activity at wild type androgen receptor in castration-resistant human LNCaP cells assessed as inhibition of R1881-stimulated receptor transcriptional activation measured after 20 to 24 hrs by Steady-Glo luciferase assay

Chain of Androgen receptor (Homo sapiens, UniProt P10275, F877L) (P10275 whole entry F877L): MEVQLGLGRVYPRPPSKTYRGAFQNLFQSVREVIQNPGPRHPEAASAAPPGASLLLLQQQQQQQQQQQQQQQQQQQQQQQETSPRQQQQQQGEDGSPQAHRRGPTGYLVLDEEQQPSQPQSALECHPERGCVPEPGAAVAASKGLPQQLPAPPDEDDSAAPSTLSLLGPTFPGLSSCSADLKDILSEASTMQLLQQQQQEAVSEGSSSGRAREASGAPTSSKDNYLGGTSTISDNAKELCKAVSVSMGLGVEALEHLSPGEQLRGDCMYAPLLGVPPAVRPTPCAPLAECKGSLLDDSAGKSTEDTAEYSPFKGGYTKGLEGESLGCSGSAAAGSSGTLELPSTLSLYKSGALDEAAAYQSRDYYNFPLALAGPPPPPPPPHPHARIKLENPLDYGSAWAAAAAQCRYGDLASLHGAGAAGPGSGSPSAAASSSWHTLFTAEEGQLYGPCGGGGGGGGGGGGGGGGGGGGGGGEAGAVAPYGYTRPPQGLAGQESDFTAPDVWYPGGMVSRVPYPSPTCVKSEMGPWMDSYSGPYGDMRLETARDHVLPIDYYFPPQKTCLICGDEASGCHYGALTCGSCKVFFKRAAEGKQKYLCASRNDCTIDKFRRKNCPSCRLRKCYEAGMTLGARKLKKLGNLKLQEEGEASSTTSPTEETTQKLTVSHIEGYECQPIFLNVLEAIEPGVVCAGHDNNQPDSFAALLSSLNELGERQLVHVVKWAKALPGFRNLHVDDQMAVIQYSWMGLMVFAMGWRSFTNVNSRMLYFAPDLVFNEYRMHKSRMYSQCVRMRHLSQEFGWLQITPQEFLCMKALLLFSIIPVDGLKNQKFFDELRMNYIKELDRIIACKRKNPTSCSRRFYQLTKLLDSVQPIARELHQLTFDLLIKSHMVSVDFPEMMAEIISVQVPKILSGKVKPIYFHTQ

As to `CNC(=O)c1cc2c(cc1F)CC1(C2)C(=O)N(c2ccc(C#N)c(C(F)(F)F)c2)C(=S)N1C(C)C` (stereo not given), the values for the half-life in [1] and in [5] were greater than 3 h and 14.8 h, respectively. Further, the AUC(0-inf) in data set [2] was 107000 ng·h/mL. In data set [3], this molecule displayed a Cmax of 8.85 µM. This molecule also showed a clearance in data set [4] of 1.6 mL/min/kg. Moreover, in data set [6], the Vd is 1.7 L/kg. The bioavailability in data set [7] was 102%.

Consider `CN1C(=S)N(c2cnc(C#N)c(C(F)(F)F)c2)C(=O)C12Cc1ccc(OC3CCNCC3)cc1C2` (stereo not given), for which the values for the half-life in [1] and in data set [5] were greater than 3 h and 16.7 h, respectively. The AUC(0-inf) in [2] was 15200 ng·h/mL. The maximum concentration (Cmax) in [3] was 0.92 µM. Also, the clearance in data set [4] is 11.5 mL/min/kg. Also, in data set [6], the Vd was 16.3 L/kg. The bioavailability in [7] was determined as 97%. Further, the remaining at 1 h, 10 µM in data set [8] was determined as 98.4%; in data set [9], 100%.

In the case of `CNC(=O)c1cc2c(cc1F)CC1(C2)C(=O)N(c2cnc(C#N)c(C(F)(F)F)c2)C(=S)N1C(C)C` (stereo not given), the values for the half-life in data set [1] and in data set [5] were greater than 3 h and 19.5 h, respectively. The molecule also had an area under the curve AUC(0-inf) in data set [2] of 27000 ng·h/mL. In data set [3], this molecule returned a Cmax of 3.69 µM. This molecule gave a clearance in data set [4] of 3.4 mL/min/kg. Besides, the Vd in [6] turned out to be 4.8 L/kg. The bioavailability in data set [7] came out at 61%.

`CNC(=O)c1ccc2c(c1)CC1(C2)C(=O)N(c2ccc(C#N)c(C(F)(F)F)c2)C(=O)N1C` (stereo not given): the IC50 is 1.66 µM in data set [10] and greater than 30 µM in data set [11].

`CNC(=O)c1cc2c(cc1F)C[C@@]1(C2)C(=O)N(c2ccc(C#N)c(C(F)(F)F)c2)C(=S)N1C(C)C`: the half-life was greater than 3 h in data set [1] and 5.2 h in data set [5]. Further, the AUC(0-inf) in [2] was 50400 ng·h/mL. In data set [3], this molecule yielded a peak concentration (Cmax) of 5.81 µM. Further, in data set [4], the clearance came to 3 mL/min/kg. In [6], the Vd was 1.8 L/kg. Moreover, the bioavailability in [7] stood at 91%.

Regarding `CN1C(=S)N(c2cnc(C#N)c(C(F)(F)F)c2)C(=O)C12Cc1ccc(O)cc1C2` (stereo not given), the results for the remaining at 1 h, 10 µM in data set [8] and in data set [9] were 52.3% and 100%, respectively.

With `N#Cc1ncc(N2C(=O)C3(CCC3)N(c3ccc(O)cc3)C2=S)cc1C(F)(F)F`, in data set [8], the remaining at 1 h, 10 µM worked out at 78.7%.

With `CNC(=O)c1cc2c(cc1F)C[C@]1(C2)C(=O)N(c2ccc(C#N)c(C(F)(F)F)c2)C(=S)N1C(C)C`, the half-life in data set [1] is greater than 3 h; in data set [5], 10.3 h. The AUC(0-inf) in data set [2] was 104000 ng·h/mL. This molecule gave a Cmax in data set [3] of 5.86 µM. This molecule also gave a clearance in [4] of 0.9 mL/min/kg. For the same molecule, in data set [6], the Vd came to 1.7 L/kg. The bioavailability in [7] came out at 63%.

`CNC(=O)c1ccc2c(c1)CC1(C2)NC(=S)N(c2cnc(C#N)c(C(F)(F)F)c2)C1=O` (stereo not given): the IC50 in [10] and in data set [11] was greater than 15 µM in each case.

`CNC(=O)c1cc2c(cc1F)C[C@@]1(C2)C(=O)N(c2cnc(C#N)c(C(F)(F)F)c2)C(=S)N1C(C)C`: the half-life in [1] was 1.97 h; in [5], 6.9 h. For the same molecule, the AUC(0-inf) in [2] stood at 39100 ng·h/mL. In addition, the Cmax in data set [3] stood at 3.7 µM. The same molecule came in with a clearance in data set [4] of 4 mL/min/kg. The Vd in [6] turned out to be 2.3 L/kg. In addition, the bioavailability in [7] turned out to be 92%.

On to `CNC(=O)c1ccc2c(c1)CC1(C2)NC(=S)N(c2ccc(C#N)c(C(F)(F)F)c2)C1=O` (stereo not given), for which the IC50 stood at 5.01 µM in data set [10] and 11.2 µM in data set [11].

Consider `CNC(=O)c1cc2c(cc1F)C[C@]1(C2)C(=O)N(c2cnc(C#N)c(C(F)(F)F)c2)C(=S)N1C(C)C`, for which the half-life is 2.25 h in data set [1] and 15.8 h in data set [5]. In data set [2], this molecule had an AUC(0-inf) of 99400 ng·h/mL. In [3], this molecule registered a Cmax of 6.1 µM. In data set [4], this molecule had a clearance of 1.3 mL/min/kg. Moreover, the Vd in [6] turned out to be 1.9 L/kg. Also, the bioavailability in data set [7] amounted to 80%.
